Blank lines part the entries; values can stand above or below the compound they belong to. Active and inactive are the calls of the source.
Columns and labels:
[1] = target: T1, Oxysterols receptor LXR-beta (Homo sapiens, UniProt P55055); format: functional, cell-based
T1 sequence (P55055 whole entry): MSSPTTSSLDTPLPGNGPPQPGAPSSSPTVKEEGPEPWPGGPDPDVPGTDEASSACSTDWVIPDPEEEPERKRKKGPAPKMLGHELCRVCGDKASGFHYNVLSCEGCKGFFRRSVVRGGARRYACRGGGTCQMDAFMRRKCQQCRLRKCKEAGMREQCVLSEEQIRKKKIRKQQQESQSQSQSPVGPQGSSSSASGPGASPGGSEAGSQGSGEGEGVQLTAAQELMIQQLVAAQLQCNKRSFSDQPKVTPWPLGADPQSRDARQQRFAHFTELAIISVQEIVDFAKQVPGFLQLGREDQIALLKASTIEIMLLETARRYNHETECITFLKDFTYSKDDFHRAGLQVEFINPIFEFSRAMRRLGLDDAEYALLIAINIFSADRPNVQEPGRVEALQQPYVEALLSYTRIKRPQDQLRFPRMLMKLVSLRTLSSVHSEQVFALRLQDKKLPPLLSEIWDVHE

Aminopeptidase N = target: T2, Aminopeptidase N (Plasmodium falciparum FcB1/Columbia, UniProt O96935); assay: malaria alanyl aminopeptidase activity blockers – biochemical, fluorogenic H-Leu-NHMec substrate, 1536-well (AID 1445); set-up: species or system Plasmodium falciparum 3D7, 3D7
T2 sequence (O96935 whole entry): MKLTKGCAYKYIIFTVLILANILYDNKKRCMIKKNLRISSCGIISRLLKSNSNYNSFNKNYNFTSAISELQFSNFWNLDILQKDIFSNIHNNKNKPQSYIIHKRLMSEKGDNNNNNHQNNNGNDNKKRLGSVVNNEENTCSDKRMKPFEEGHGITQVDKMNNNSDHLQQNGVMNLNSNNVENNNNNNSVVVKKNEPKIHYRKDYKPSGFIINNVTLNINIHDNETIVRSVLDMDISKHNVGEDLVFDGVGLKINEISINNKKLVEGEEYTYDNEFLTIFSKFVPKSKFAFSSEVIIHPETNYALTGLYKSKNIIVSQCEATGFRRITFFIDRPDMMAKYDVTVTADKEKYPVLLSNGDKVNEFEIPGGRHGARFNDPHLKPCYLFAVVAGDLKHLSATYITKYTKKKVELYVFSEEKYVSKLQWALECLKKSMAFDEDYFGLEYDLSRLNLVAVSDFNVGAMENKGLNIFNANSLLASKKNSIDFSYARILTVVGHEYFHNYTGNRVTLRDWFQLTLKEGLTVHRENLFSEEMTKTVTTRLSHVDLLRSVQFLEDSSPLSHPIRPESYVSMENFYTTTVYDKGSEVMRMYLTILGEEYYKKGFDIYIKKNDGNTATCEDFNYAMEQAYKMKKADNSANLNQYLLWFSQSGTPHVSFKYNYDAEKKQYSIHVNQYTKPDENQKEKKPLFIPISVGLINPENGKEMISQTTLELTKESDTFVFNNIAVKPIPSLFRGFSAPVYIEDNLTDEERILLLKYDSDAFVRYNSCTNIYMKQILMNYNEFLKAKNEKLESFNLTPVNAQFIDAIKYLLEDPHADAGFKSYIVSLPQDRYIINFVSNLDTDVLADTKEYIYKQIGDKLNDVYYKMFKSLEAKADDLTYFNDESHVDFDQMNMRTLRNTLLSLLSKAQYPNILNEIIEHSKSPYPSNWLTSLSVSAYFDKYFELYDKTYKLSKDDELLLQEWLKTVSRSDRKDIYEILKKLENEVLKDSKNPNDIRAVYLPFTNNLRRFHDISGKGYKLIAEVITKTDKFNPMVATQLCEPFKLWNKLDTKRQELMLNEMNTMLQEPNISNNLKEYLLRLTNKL

Large T antigen = Large T antigen (Simian virus 40, UniProt P03070); format: functional, Betapolyomavirus macacae;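 also: Confirmatory-stage PubChem screen for compounds that inhibit SV40 T antigen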
Chain of Large T antigen (P03070 whole entry): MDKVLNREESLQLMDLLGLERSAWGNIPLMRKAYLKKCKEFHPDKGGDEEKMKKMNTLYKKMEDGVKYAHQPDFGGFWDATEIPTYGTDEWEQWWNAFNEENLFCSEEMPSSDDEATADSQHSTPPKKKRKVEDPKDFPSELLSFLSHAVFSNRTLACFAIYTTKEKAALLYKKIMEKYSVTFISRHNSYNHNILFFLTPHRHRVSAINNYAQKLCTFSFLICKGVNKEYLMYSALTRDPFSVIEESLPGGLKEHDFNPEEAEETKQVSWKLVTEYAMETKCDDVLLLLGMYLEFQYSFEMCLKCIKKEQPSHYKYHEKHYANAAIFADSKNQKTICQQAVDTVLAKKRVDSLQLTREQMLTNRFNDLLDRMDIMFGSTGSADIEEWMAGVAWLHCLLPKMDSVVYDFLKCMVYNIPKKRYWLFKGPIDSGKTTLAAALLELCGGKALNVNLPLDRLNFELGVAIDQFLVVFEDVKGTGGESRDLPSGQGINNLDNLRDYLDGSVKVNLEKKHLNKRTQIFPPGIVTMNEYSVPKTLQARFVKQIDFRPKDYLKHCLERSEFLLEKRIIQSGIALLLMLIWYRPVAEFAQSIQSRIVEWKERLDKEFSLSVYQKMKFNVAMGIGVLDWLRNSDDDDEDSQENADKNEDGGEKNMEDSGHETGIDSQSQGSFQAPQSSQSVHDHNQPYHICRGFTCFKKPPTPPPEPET

[2] = target: Induced myeloid leukemia cell differentiation protein Mcl-1 (Homo sapiens, UniProt Q07820); format: functional
Chain of Induced myeloid leukemia cell differentiation protein Mcl-1 (Q07820 whole entry): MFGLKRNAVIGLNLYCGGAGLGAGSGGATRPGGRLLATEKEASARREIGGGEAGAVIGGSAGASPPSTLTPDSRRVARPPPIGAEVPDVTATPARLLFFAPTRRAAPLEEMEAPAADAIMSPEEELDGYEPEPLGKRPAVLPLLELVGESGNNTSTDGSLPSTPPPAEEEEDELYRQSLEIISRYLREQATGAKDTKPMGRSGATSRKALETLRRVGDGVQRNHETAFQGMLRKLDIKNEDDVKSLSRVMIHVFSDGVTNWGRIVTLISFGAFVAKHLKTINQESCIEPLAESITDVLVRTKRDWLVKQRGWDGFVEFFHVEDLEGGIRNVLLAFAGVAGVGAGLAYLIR

[3] = OVCAR-3 cell viability loss – plate reader, dry powder samples, PAX8 inhibitor project, dose response (AID 743044); format: functional, cell-based
Paired box protein Pax-8 = Paired box protein Pax-8 (Homo sapiens, UniProt Q06710); assay: PAX8 transcriptional activity inhibition in RMG-I – RMG-I cells, luciferase, cherry-pick, dose response (AID 687027); format: functional, cell-based;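 also: luciferase reporter driven by Pax8 target thyroperoxidase promoter measured by SteadyGlo luminescence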
Chain of Paired box protein Pax-8 (Q06710 whole entry): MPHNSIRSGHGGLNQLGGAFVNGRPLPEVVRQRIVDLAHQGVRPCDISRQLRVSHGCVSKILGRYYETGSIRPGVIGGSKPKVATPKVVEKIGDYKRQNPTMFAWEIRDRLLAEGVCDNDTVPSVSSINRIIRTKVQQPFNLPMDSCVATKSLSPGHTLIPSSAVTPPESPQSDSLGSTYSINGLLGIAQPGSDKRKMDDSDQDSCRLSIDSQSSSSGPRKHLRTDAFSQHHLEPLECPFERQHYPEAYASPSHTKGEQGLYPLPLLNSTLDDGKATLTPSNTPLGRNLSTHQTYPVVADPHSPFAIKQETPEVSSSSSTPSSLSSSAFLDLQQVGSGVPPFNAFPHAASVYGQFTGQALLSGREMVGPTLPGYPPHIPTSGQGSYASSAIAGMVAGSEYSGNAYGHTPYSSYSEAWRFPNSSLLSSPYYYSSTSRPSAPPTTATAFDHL

[4] = A2780 cell killing – plate reader, dry powder samples, cytotoxicity control, dose response (AID 743046); format: functional, cell-based
[5] = OVCAR8 cell viability loss – plate reader, dry powder samples, PAX8 project, dose response (AID 743197); format: functional, cell-based; details: OVCAR-8
[6] = target: T3, Sentrin-specific protease 8 (Homo sapiens, UniProt Q96LD8); format: functional;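 also: luminescence read-out of SENP8 inhibition, dose-response confirmation following an ultra-high-throughput screen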
T3 sequence (Q96LD8 whole entry): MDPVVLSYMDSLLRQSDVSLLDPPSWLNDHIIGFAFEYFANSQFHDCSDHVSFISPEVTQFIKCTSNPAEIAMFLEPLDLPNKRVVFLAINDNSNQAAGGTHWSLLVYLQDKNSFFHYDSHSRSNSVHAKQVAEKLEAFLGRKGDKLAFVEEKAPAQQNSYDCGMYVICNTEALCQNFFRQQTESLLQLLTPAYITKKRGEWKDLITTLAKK

[7] = target: T1, Oxysterols receptor LXR-beta; assay: LXR agonists, Gal4 luciferase reporter, dose response, counter-screen for ssDAF-12 agonist project, cell-based, luminescence, HEK293, S. stercoralis campaign (AID 720737); format: functional; details: read-out: IC50 (the source's name)
[8] = target: T1, Oxysterols receptor LXR-beta; format: functional, cell-based; remark: listed apart in the source
Caspase-3 = target: T4, Caspase-3 (Homo sapiens, UniProt P42574); format: functional;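 also: Dose-response selectivity test against caspase-3 for candidate inhibitors of sentrin-specific proteases (SENPs)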
T4 sequence (P42574 whole entry): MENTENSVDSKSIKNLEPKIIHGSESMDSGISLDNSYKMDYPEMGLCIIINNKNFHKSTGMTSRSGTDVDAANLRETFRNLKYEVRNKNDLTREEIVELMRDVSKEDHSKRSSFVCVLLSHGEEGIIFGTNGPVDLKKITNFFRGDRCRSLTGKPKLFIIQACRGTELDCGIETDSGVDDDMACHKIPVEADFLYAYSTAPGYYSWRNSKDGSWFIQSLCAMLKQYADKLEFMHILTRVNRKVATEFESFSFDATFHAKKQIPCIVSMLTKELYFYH

[9] = target: T5, Sentrin-specific protease 6 (Homo sapiens, UniProt Q9GZR1); format: functional;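 also: Luminescence-based dose-response confirmatory assay of SENP6 inhibition, following up an ultra-high-throughput screen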
T5 sequence (Q9GZR1 whole entry): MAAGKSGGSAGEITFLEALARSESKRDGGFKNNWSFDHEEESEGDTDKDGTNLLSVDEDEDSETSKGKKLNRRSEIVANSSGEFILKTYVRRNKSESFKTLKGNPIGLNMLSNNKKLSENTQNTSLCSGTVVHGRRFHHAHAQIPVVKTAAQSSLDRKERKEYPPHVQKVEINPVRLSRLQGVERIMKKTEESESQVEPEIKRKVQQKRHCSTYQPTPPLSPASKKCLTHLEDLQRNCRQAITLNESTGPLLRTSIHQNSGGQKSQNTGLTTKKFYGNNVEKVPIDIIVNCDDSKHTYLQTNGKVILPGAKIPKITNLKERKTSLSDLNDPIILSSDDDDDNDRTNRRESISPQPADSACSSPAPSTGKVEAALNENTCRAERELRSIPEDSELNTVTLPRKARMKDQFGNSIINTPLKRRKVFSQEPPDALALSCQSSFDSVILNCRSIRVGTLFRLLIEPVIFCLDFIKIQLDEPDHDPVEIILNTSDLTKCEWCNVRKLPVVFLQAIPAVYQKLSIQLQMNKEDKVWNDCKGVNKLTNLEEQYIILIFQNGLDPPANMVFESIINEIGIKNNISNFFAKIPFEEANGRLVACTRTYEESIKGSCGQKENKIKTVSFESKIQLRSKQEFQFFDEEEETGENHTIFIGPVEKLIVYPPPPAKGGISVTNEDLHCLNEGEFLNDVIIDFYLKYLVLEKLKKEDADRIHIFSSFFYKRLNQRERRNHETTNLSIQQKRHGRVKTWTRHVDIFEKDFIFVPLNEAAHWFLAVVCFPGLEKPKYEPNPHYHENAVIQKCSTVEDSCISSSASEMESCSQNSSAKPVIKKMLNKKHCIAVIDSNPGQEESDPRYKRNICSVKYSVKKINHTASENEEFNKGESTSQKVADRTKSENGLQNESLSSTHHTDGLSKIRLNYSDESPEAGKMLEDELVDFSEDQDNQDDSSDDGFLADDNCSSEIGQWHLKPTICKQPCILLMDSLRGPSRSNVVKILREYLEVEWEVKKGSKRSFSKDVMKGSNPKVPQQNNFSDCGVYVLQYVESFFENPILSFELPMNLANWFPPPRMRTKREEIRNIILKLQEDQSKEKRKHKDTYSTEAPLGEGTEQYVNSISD

[10] = Luminescence-based cell-based high throughput dose response assay to identify activators of the DAF-12 from the parasite S. stercoralis (ssDAF-12).; format: functional
[11] = target: T6, Sentrin-specific protease 7 (Homo sapiens, UniProt Q9BQF6); format: functional;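 also: Luminescence-based dose-response confirmation of ultra-high-throughput screening hits, measuring inhibition of SENP7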
T6 sequence (Q9BQF6 whole entry): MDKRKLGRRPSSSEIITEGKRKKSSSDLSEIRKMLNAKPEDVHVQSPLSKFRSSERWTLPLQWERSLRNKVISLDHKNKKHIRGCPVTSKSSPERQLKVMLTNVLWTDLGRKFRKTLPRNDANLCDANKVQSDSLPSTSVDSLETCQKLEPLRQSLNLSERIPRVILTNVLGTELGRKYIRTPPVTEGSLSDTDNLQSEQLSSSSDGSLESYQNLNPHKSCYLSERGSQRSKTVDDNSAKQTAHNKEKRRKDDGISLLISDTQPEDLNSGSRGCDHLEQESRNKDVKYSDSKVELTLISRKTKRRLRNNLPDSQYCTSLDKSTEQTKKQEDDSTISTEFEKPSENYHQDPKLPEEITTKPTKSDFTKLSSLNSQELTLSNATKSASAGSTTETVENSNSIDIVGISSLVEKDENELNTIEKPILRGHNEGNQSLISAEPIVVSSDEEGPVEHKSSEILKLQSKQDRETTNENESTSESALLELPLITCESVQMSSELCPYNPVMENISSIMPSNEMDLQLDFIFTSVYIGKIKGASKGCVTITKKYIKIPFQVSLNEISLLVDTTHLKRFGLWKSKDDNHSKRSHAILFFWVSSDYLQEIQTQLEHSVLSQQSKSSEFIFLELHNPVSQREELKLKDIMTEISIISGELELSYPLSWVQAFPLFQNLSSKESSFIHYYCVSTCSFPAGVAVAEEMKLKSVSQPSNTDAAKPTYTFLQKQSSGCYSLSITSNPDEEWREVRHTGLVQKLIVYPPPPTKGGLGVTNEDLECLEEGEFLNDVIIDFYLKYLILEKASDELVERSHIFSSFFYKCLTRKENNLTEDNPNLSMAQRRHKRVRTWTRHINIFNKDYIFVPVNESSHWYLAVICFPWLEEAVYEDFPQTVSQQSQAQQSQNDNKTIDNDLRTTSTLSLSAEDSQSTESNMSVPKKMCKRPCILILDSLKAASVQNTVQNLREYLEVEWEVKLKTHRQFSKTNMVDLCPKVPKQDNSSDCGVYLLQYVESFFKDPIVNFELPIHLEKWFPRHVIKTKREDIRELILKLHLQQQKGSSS

EC50 [1]: > 67.5 µM (inactive)
IC50 (Aminopeptidase N): 66.1 µM (active)
IC50 (Large T antigen): 7.62 µM (active)
IC50 [2]: 3.26 µM (active)
SMILES: COc1cc(/C=C2/C(=N)N3N=C(c4ccc(C)cc4)SC3=NC2=O)ccc1O

SMILES: Cc1ccccc1S(=O)(=O)N1CC[C@@H]2[C@H](CO)Nc3ccc(-c4cccc(F)c4)cc3[C@@H]21
AC50 [3]: 53.8 µM (active)
AC50 (Paired box protein Pax-8): 13.6 µM (active)
AC50 [4]: 0.711 µM (active)
AC50 [5]: 46.7 µM (active)

SMILES: Cc1ccc(Nc2nc(-c3cccnc3)cs2)cc1C
IC50 [6]: 7.16 µM (active)
EC50 [7]: > 67.6 µM (inactive)
EC50 [8]: > 67.6 µM (inactive)
IC50 (Caspase-3): 34.4 µM (active)
EC50 (cells): > 67.6 µM (inactive)
IC50 [9]: 7.01 µM (active)
IC50 [10]: > 67.6 µM (inactive)
IC50 [11]: 5.02 µM (active)

SMILES: Cc1ccc(-c2noc(-c3ccccc3Br)n2)cc1
EC50 [8]: > 67.5 µM (inactive)
EC50 (cells): > 67.5 µM (inactive)

From ChEMBL document CHEMBL1201862, “PubChem BioAssay data set” (2004)
